From US8344010B2, “Fused imidazole derivatives as TRPV3 antagonist” (Glenmark Pharmaceuticals S.A., priority 2008, dated 2013) come the findings set out here.

The term inhibition denotes the share of the control response that was lost under treatment. The term IC50 denotes the midpoint of a concentration-inhibition curve.

In the test the target is T1, Human TRPV3 (Homo sapiens, UniProt Q8NET8).
T1 construct: expressed in transfected cells; host or cells: CHO cells (selected with G-418)
T1 sequence (Q8NET8 1-790): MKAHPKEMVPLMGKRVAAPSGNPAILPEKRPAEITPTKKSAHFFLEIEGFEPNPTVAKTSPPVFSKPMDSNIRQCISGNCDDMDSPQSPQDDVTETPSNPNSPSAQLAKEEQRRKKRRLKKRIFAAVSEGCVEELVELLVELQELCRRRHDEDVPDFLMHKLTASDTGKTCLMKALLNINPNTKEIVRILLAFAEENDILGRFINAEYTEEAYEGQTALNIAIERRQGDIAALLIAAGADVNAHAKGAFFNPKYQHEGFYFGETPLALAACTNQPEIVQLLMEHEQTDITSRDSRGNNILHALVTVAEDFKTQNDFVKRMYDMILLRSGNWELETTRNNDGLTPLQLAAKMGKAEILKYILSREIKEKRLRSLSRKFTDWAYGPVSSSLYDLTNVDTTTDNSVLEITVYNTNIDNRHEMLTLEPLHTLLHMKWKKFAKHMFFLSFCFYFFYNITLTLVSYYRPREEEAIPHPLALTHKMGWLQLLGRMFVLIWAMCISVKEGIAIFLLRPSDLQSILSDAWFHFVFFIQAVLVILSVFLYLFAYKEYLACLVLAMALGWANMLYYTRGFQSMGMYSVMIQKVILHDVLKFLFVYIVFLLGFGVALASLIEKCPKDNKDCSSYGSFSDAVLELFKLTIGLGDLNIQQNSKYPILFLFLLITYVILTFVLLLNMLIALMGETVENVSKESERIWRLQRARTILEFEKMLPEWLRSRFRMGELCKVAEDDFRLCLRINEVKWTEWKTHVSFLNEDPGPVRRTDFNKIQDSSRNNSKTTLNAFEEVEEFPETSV
Description: 45Calcium uptake assay: inhibition of 2-APB induced cellular uptake of radioactive calcium. In kind it is cell-based. Particulars: human TRPV3 expressing CHO cells, 2-APB 500 μM; for inhibition at 1 µM: 1 μM test compound, read-out: Percentage Inhibition (1 μM); for inhibition at 10 µM: 10 μM test compound, read-out: Percentage Inhibition (10 μM). From the text:
The illustrative examples of the present invention are screened for TRPV3 activity according to a modified procedure described in Tóth, A., Kedei, N., Wang, Y. and Blumberg, P. M. Life Sciences (2003), 73, 487-498. The screening of the compounds can be carried out by other methods and procedures known to a person skilled in the art. Such screening methods may be found in (a) Hu, H.-Z. et al. J. Biol. Chem. (2004), 279, 35741-35747; (b) Smith, G. D. et al. Nature (2002), 418, 186-190; (c) Peier, A. M. et al. Science (2002), 296, 2046-2049.
Screening for TRPV3 antagonist using the ^45Calcium uptake assay The inhibition of TRPV3 receptor activation was followed as inhibition of 2-aminoethoxydiphenylborate (2-APB) induced cellular uptake of radioactive calcium. Test compounds were dissolved in dimethyl sulfoxide (DMSO) to prepare 20 mM stock solution and then diluted using plain medium with DMEM/F-12 containing 1.8 mM CaCl2 to get desired concentration. Final concentration of DMSO in the reaction was 0.5% (v/v). Human TRPV3 expressing CHO cells were grown in DMEM/F-12 medium with 10% FBS, 1% penicillin-streptomycin solution, 400 μg/ml of G-418. Cells were seeded 24 h prior to the assay in 96 well plates so as to get ˜50,000 cells per well on the day of experiment. Cells were treated with test compounds for 10 minutes followed by addition of 2-APB at a final concentration of 500 μM and 5 μCi/ml^45Ca^+2 for 4 minutes. Cells were washed and lysed using buffer containing 1% Triton X-100, 0.1% deoxycholate and 0.1% SDS. Radioactivity in the lysate was measured in Packardt Top count after addition of liquid scintillant. Concentration response curves were plotted as a % of maximal response obtained in the absence of test antagonist. IC50 value was calculated from concentration response curve by nonlinear regression analysis using GraphPad PRISM software.
Percentage inhibition at concentrations of 1.0 μM and 10.0 μM are given in the table along with IC50 details for selected examples.

The structures appear in SMILES notation.

Turning to `COc1cccc(/C=C/c2nc3cc(F)cc(F)c3n2-c2ccc(C#N)cn2)c1OC1CCCC1` [Example 79, 6-{5,7-Difluoro-2-[(E)-2-(2-[cyclopentyloxy]-3-methoxyphenyl)vinyl]-1H-benzimidazol-1-yl}nicotinonitrile], the inhibition at 1 µM came to 93.7% and the inhibition at 10 µM stood at 96.8%. Besides, under “class symbol”, the IC50 was in the range of 50 to 100 nM. The IC50 (numeric value) came to 69.2 nM.
On to `N#Cc1ccc(-n2c(/C=C/c3cccc(OC(F)F)c3OCC3CCC3)nc3cc(F)c(F)cc32)nc1` [Example 83, 6-(2-{(E)-2-[2-(Cyclobutylmethoxy)-3-difluoromethoxyphenyl]vinyl}-5,6-difluoro-1H-benzimidazol-1-yl)nicotinonitrile], for which the inhibition at 1 µM stood at 96.7% and the inhibition at 10 µM was determined as 97.7%. Also, for the setting “class symbol”, the IC50 is less than 50 nM.
On to `FC(F)Oc1cccc(/C=C/c2nc3cccnc3n2-c2ccc(OC(F)(F)F)cc2)c1OCC1CCC1` [Example 100, 2-{(E)-2-[2-Cylobutylmethoxy-3-(difluoromethoxy)phenyl]vinyl}-3-[4-(trifluoromethoxy)phenyl]-3H-imidazo[4,5-b]pyridine], for which the inhibition at 1 µM turned out to be 66.3% and the inhibition at 10 µM was 94.9%.
Turning to `COc1cccc(/C=C/c2nc3ccccc3n2-c2ncccc2C(F)(F)F)c1OC1CCCC1` [Example 24, 2-[(E)-2-(2-Cyclopentyloxy-3-methoxyphenyl)vinyl]-1-[3-(trifluoromethyl)pyridin-2-yl]-1H-benzimidazole], the inhibition at 1 µM is 84.7% and the inhibition at 10 µM worked out at 98%. Moreover, the IC50 (class symbol) is greater than 500 nM.
Turning to `CCCCCOc1c(/C=C/c2nc3cc(F)cc(F)c3n2-c2ccc(C#N)cn2)cccc1OC` [Example 78, 6-{5,7-Difluoro-2-[(E)-2-(2-pentyloxy-3-methoxyphenyl)vinyl]-1H-benzimidazol-1-yl}nicotinonitrile], the inhibition at 1 µM came out at 92.7% and the inhibition at 10 µM was 96.8%. Further, under “class symbol”, the half-inhibitory concentration (IC50) lay in the range of 50 to 100 nM.
Taken in the same sequence, the figures for `N#Cc1ccc(-n2c(/C=C/c3cccc(OC(F)F)c3OC3CCCC3)nc3cc(Cl)cnc32)nc1` [Example 103, 6-(6-Chloro-2-{(E)-2-[2-(cyclopentyloxy)-3-difluoromethoxyphenyl]vinyl}-3H-imidazo[4,5-b]pyridin-3-yl)nicotinonitrile] were 98.3%, 97.8% and 50 to 100 nM.
For `COc1cccc(/C=C/c2nc3ccccc3n2-c2ccc(C#N)cn2)c1OCC1CC1` [Example 12, 6-{2-[(E)-2-(2-[Cyclopropylmethoxy]-3-methoxyphenyl)vinyl]-1H-benzimidazol-1-yl}nicotinonitrile], the inhibition at 1 µM turned out to be 81.4% and the inhibition at 10 µM was found to be 97.7%. In addition, for the setting “class symbol”, the IC50 is 100 to 500 nM.
With `COc1cccc(/C=C/c2nc3cc(F)c(F)cc3n2-c2ccc(C#N)cn2)c1O` [Example 69, 6-{5,6-Difluoro-2-[(E)-2-(2-hydroxy-3-methoxyphenyl)vinyl]-1H-benzimidazol-1-yl}nicotinonitrile], the inhibition at 1 µM was found to be 32.7% and the inhibition at 10 µM is 95.5%.
For the compound `COc1cccc(/C=C/c2nc3ccccc3n2Cc2ccc(F)cc2F)c1OCC1CC1` [Example 41, 1-(2,4-Difluorobenzyl)-2-[(E)-2-(2-cyclopropylmethoxy-3-methoxyphenyl)vinyl]-1H-benzimidazole], the inhibition at 1 µM is 57.7% and the inhibition at 10 µM was found to be 86.5%.
As for `COc1cccc(/C=C/c2nc3ccc(Cl)cc3n2-c2ccc(C#N)cn2)c1OC1CCCC1` [Example 54, 6-{6-Chloro-2-[(E)-2-(2-cyclopentyloxy-3-methoxyphenyl)vinyl]-1H-benzimidazol-1-yl}nicotinonitrile], the inhibition at 1 µM was found to be 95.3% and the inhibition at 10 µM amounted to 97.7%. Further, the IC50 (class symbol) was in the range of 50 to 100 nM.
As for `COc1cccc(/C=C/c2nc3ccccc3n2-c2ccc(C#N)cc2)c1OCC1CC1` [Example 33, 4-{2-[(E)-2-(2-Cyclopropylmethoxy-3-methoxyphenyl)vinyl]-1H-benzimidazol-1-yl}benzonitrile], the inhibition at 1 µM stood at 78.2% and the inhibition at 10 µM was determined as 95.3%. The IC50 (class symbol) was in the range of 100 to 500 nM.
Taken in the same sequence, the figures for `CCOc1c(/C=C/c2nc3cc(F)c(F)cc3n2-c2ccc(C#N)cn2)cccc1OC` [Example 63, 6-{2-[(E)-2-(2-Ethoxy-3-methoxyphenyl)vinyl]-5,6-difluoro-1H-benzimidazol-1-yl}nicotinonitrile] were 80.8%, 97.7% and 100 to 500 nM.
For the compound `COc1cccc(/C=C/c2nc3ccccc3n2-c2ccc(F)c(C#N)c2)c1OCC1CC1` [Example 38], the inhibition at 1 µM amounted to 48.3% and the inhibition at 10 µM worked out at 59.2%.
Turning to `COc1cccc(/C=C/c2nc3ccccc3n2-c2ncc(C#N)s2)c1OC1CCCC1` [Example 48, 2-{2-[(E)-2-(2-[Cyclopentyloxy]-3-methoxyphenyl)vinyl]-1H-benzimidazol-1-yl}-1,3-thiazole-5-carbonitrile], the inhibition at 1 µM was 43.5% and the inhibition at 10 µM amounted to 75.8%.
On to `COc1cccc(/C=C/c2nc3ccccc3n2-c2ccc(C(F)(F)F)cc2)c1OCC1CC1` [Example 37, 2-[(E)-2-(2-Cyclopropylmethoxy-3-methoxyphenyl)vinyl]-1-[4-(trifluoromethyl)phenyl]-1H-benzimidazole], for which the inhibition at 1 µM came out at 72.2% and the inhibition at 10 µM is 84.6%. For the same compound, the IC50 (class symbol) is 100 to 500 nM.
Take `COc1cccc(/C=C/c2nc3cc(C)c(C)cc3n2-c2ccc(C#N)cn2)c1OC1CCCC1` [Example 62, 6-{2-[(E)-2-(2-[Cyclopentyloxy]-3-methoxyphenyl)vinyl]-5,6-dimethyl-1H-benzimidazol-1-yl}nicotinonitrile]: the inhibition at 1 µM came to 92% and the inhibition at 10 µM came to 95.9%. Moreover, where the note is “class symbol”, the IC50 was in the range of 100 to 500 nM.
Taken in the same sequence, the figures for `COc1cccc(/C=C/c2nc3cc(C(F)(F)F)ccc3n2-c2ccc(C#N)cn2)c1OC1CCCC1` [Example 57, 6-{2-[(E)-2-(2-[Cyclopentyloxy]-3-methoxyphenyl)vinyl]-5-(trifluoromethyl)-1H-benzimidazol-1-yl}nicotinonitrile] were 93%, 96.1% and 100 to 500 nM.
Taken in the same sequence, the figures for `COc1cccc(/C=C/c2nc3ccccc3n2-c2ccc(C(F)(F)F)cn2)c1OC(C)C` [Example 25, 2-[(E)-2-(2-Isopropoxy-3-methoxyphenyl)vinyl]-1-(5-trifluoromethylpyridin-2-yl)-1H-benzimidazole] were 86.7%, 97.5% and 100 to 500 nM.
For `FC(F)Oc1cccc(/C=C/c2nc3cccnc3n2-c2ccc(C(F)(F)F)cc2)c1OCC1CCC1` [Example 99, 2-[(E)-2-(2-Cyclobutylmethoxy-3-difluoromethoxyphenyl)vinyl]-3-[4-(trifluoromethyl)phenyl]-3H-imidazo[4,5-b]pyridine] the same measures were 89.5%, 95.8% and greater than 500 nM.
